Experimental data published in the NIST ThermoML archive (doi:10.1016/j.tca.2014.05.028).

Assay: xn = mol fraction of the nth substance listed
Details: 101 kPa, Liquid; for viscosity: Falling or rolling sphere viscometry; for mass density: Vibrating tube method

CCC[N+]1(C)CCCC1.[Br-] [1-methyl-1-propylpyrrolidinium bromide] + O
Details	mass density [kg/m3]	viscosity [mPa·s]
298.15 K, x1 = 0.0315	1060.85	1.604
298.15 K, x1 = 0.0664	1111.9	2.896
298.15 K, x1 = 0.0983	1147.67	5.311
298.15 K, x1 = 0.1376	1178.4	8.527
298.15 K, x1 = 0.1685	1196.91	12.41
298.15 K, x1 = 0.2138	1217.36	20.56
298.15 K, x1 = 0.2382	1225.96	26.01
298.15 K, x1 = 0.27	1235.84	35.47
298.15 K, x1 = 0.3143	1245.39	50.7
298.15 K, x1 = 0.3535	1251.89	69.94
298.15 K, x1 = 1	1259.96	–
303.15 K, x1 = 0.0315	1058.76	1.412
303.15 K, x1 = 0.0664	1109.17	2.5
303.15 K, x1 = 0.0983	1144.55	4.504
303.15 K, x1 = 0.1376	1175.05	7.082
303.15 K, x1 = 0.1685	1193.47	10.2
303.15 K, x1 = 0.2138	1213.89	16.41
303.15 K, x1 = 0.2382	1222.51	20.59
303.15 K, x1 = 0.27	1232.42	27.62
303.15 K, x1 = 0.3143	1242.02	39.02
303.15 K, x1 = 0.3535	1248.57	53.25
303.15 K, x1 = 1	1255.92	–
308.15 K, x1 = 0.0315	1056.5	1.216
308.15 K, x1 = 0.0664	1106.34	2.115
308.15 K, x1 = 0.0983	1141.38	3.451
308.15 K, x1 = 0.1376	1171.66	5.766
308.15 K, x1 = 0.1685	1190.01	8.237
308.15 K, x1 = 0.2138	1210.41	12.97
308.15 K, x1 = 0.2382	1219.05	16.15
308.15 K, x1 = 0.27	1228.99	21.43
308.15 K, x1 = 0.3143	1238.64	29.75
308.15 K, x1 = 0.3535	1245.24	40.25
308.15 K, x1 = 1	1251.9	–
313.15 K, x1 = 0.0315	1054.11	1.077
313.15 K, x1 = 0.0664	1103.44	1.841
313.15 K, x1 = 0.0983	1138.15	2.994
313.15 K, x1 = 0.1376	1168.23	4.851
313.15 K, x1 = 0.1685	1186.52	6.89
313.15 K, x1 = 0.2138	1206.9	10.66
313.15 K, x1 = 0.2382	1215.56	13.14
313.15 K, x1 = 0.27	1225.54	17.24
313.15 K, x1 = 0.3143	1235.25	23.61
313.15 K, x1 = 0.3535	1241.91	31.53
313.15 K, x1 = 1	1247.91	–
318.15 K, x1 = 0.0315	1051.58	0.972
318.15 K, x1 = 0.0664	1100.44	1.633
318.15 K, x1 = 0.0983	1134.88	2.652
318.15 K, x1 = 0.1376	1164.78	4.16
318.15 K, x1 = 0.1685	1183	5.833
318.15 K, x1 = 0.2138	1203.37	8.968
318.15 K, x1 = 0.2382	1212.05	10.98
318.15 K, x1 = 0.27	1222.08	14.27
318.15 K, x1 = 0.3143	1231.85	19.29
318.15 K, x1 = 0.3535	1238.59	25.42
318.15 K, x1 = 1	1243.94	–
323.15 K, x1 = 0.0315	1048.87	0.865
323.15 K, x1 = 0.0664	1097.37	1.431
323.15 K, x1 = 0.0983	1131.54	2.372
323.15 K, x1 = 0.1376	1161.28	3.542
323.15 K, x1 = 0.1685	1179.46	4.937
323.15 K, x1 = 0.2138	1199.83	7.49
323.15 K, x1 = 0.2382	1208.53	9.11
323.15 K, x1 = 0.27	1218.61	11.75
323.15 K, x1 = 0.3143	1228.44	15.69
323.15 K, x1 = 0.3535	1235.27	20.44
323.15 K, x1 = 1	1240	–
328.15 K, x1 = 0.0315	1045.65	0.771
328.15 K, x1 = 0.0664	1094.2	1.254
328.15 K, x1 = 0.0983	1128.16	2.085
328.15 K, x1 = 0.1376	1157.76	3.021
328.15 K, x1 = 0.1685	1175.88	4.183
328.15 K, x1 = 0.2138	1196.26	6.287
328.15 K, x1 = 0.2382	1205	7.586
328.15 K, x1 = 0.27	1215.12	9.732
328.15 K, x1 = 0.3143	1225.02	12.85
328.15 K, x1 = 0.3535	1231.95	16.54
328.15 K, x1 = 1	1236.08	–
333.15 K, x1 = 0.0315	1041.46	0.695
333.15 K, x1 = 0.0664	1090.9	1.112
333.15 K, x1 = 0.0983	1124.72	1.841
333.15 K, x1 = 0.1376	1154.2	2.61
333.15 K, x1 = 0.1685	1172.28	3.597
333.15 K, x1 = 0.2138	1192.68	5.348
333.15 K, x1 = 0.2382	1201.44	6.425
333.15 K, x1 = 0.27	1211.61	8.189
333.15 K, x1 = 0.3143	1221.59	10.73
333.15 K, x1 = 0.3535	1228.68	13.7
333.15 K, x1 = 1	1232.19	–
338.15 K, x1 = 0.0315	1036.23	0.64
338.15 K, x1 = 0.0664	1087.31	1.01
338.15 K, x1 = 0.0983	1121.23	1.651
338.15 K, x1 = 0.1376	1150.6	2.311
338.15 K, x1 = 0.1685	1168.66	3.174
338.15 K, x1 = 0.2138	1189.07	4.677
338.15 K, x1 = 0.2382	1197.87	5.592
338.15 K, x1 = 0.27	1208.09	7.083
338.15 K, x1 = 0.3143	1218.14	9.191
338.15 K, x1 = 0.3535	1225.35	11.65
338.15 K, x1 = 1	1228.32	–
343.15 K, x1 = 0.0315	1030.46	0.574
343.15 K, x1 = 0.0664	1083.03	0.881
343.15 K, x1 = 0.0983	1117.67	1.326
343.15 K, x1 = 0.1376	1146.98	1.931
343.15 K, x1 = 0.1685	1165.01	2.763
343.15 K, x1 = 0.2138	1185.45	4.018
343.15 K, x1 = 0.2382	1194.28	4.784
343.15 K, x1 = 0.27	1204.56	6.011
343.15 K, x1 = 0.3143	1214.68	7.777
343.15 K, x1 = 0.3535	1221.99	9.762
343.15 K, x1 = 1	1224.48	–
